Measurements published in ChEMBL document CHEMBL5724914, “Linking interpersonal differences in gut microbiota composition and drug biotransformation activity” (2024).

Columns and labels:
[1] = (§1) The drug is tested on Z-024 corresponding to pig gut metagenome with ENA study accession number: PRJEB37062 and ENA sample accession number: ERS12561823 for biotransformation under anaerobic condition. The drug concentrations were measured over 9 timepoints collected between 0 and 24 hours of incubation by liquid-chromatography-coupled mass spectrometry (LC–MS); conditions: 2 µM
[2] = human gut metagenome, 24 h, 2 µM
[3] = as §1, with “Z-005” for “Z-024”, “to” for “to pig gut”, “ERS12561805” for “ERS12561823”; conditions: 2 µM
[4] = as §1, with “Z-028” for “Z-024”, “mouse” for “pig”, “ERS12561827” for “ERS12561823”; conditions: 2 µM
[5] = human gut metagenome, 24 h, 2 µM; remark: listed apart in the source
[6] = human gut metagenome, 24 h, 2 µM; remark: listed apart in the source
[7] = human gut metagenome, 24 h, 2 µM; remark: listed apart in the source
[8] = as §1, with “Z-018” for “Z-024”, “ERS12561817” for “ERS12561823”; conditions: 2 µM
[9] = human gut metagenome, 24 h, 2 µM; remark: listed apart in the source
[10] = human gut metagenome, 24 h, 2 µM; remark: listed apart in the source
[11] = human gut metagenome, 24 h, 2 µM; remark: listed apart in the source
[12] = as §1, with “Z-025” for “Z-024”, “rabbit” for “pig”, “ERS12561824” for “ERS12561823”; conditions: 2 µM
[13] = as §1, with “WLS-086” for “Z-024”, “human” for “pig”, “ERS12561752” for “ERS12561823”; conditions: 2 µM
[14] = as §1, with “WLS-082” for “Z-024”, “human” for “pig”, “ERS12561751” for “ERS12561823”; conditions: 2 µM
[15] = as §1, with “WLS-006” for “Z-024”, “human” for “pig”, “ERS12561741” for “ERS12561823”; conditions: 2 µM
[16] = as §1, with “WLS-073” for “Z-024”, “human” for “pig”, “ERS12561749” for “ERS12561823”; conditions: 2 µM
[17] = human gut metagenome, 24 h, 2 µM; remark: listed apart in the source
[18] = as §1, with “Z-017” for “Z-024”, “mouse” for “pig”, “ERS12561816” for “ERS12561823”; conditions: 2 µM
[19] = human gut metagenome, 24 h, 2 µM; remark: listed apart in the source
[20] = as §1, with “Z-009” for “Z-024”, “ERS12561809” for “ERS12561823”; conditions: 2 µM
Further: call rule not given here.

SMILES	Bacterial Biotransformation [1]	Bacterial Biotransformation [2]	Bacterial Biotransformation [3]	Bacterial Biotransformation [4]	Bacterial Biotransformation [5]	Bacterial Biotransformation [6]	Bacterial Biotransformation [7]	Bacterial Biotransformation [8]	Bacterial Biotransformation [9]	Bacterial Biotransformation [10]	Bacterial Biotransformation [11]	Bacterial Biotransformation [12]	Bacterial Biotransformation [13]	Bacterial Biotransformation [14]	Bacterial Biotransformation [15]	Bacterial Biotransformation [16]	Bacterial Biotransformation [17]	Bacterial Biotransformation [18]	Bacterial Biotransformation [19]	Bacterial Biotransformation [20]
CCOC(=O)C1=C[C@]2(CC)CCCN3CCc4c(n1c1ccccc41)[C@@H]32 [VINPOCETINE]	Compound metabolized	Compound NOT metabolized	Compound NOT metabolized	Compound NOT metabolized	Compound metabolized	Compound metabolized	Compound metabolized	Compound metabolized	Compound NOT metabolized	Compound metabolized	Compound NOT metabolized	Compound NOT metabolized	Compound metabolized	Compound metabolized	Compound metabolized	Compound metabolized	Compound metabolized	Compound NOT metabolized	Compound metabolized	Compound metabolized
C[C@@H](c1ncncc1F)[C@](O)(Cn1cncn1)c1ccc(F)cc1F [VORICONAZOLE]	Compound metabolized	Compound metabolized	Compound metabolized	Compound NOT metabolized	Compound metabolized	Compound metabolized	Compound metabolized	Compound metabolized	Compound metabolized	Compound metabolized	Compound metabolized	Compound NOT metabolized	Compound metabolized	Compound metabolized	Compound metabolized	Compound metabolized	Compound metabolized	Compound NOT metabolized	Compound metabolized	Compound metabolized
CCN(C(C)=O)c1cccc(-c2ccnc3c(C#N)cnn23)c1 [ZALEPLON]	Compound NOT metabolized	Compound metabolized	Compound NOT metabolized	Compound NOT metabolized	Compound metabolized	Compound metabolized	Compound metabolized	Compound metabolized	Compound NOT metabolized	Compound metabolized	Compound NOT metabolized	Compound metabolized	Compound metabolized	Compound metabolized	Compound metabolized	Compound metabolized	Compound metabolized	Compound NOT metabolized	Compound metabolized	Compound metabolized
